Results: patent publication US6649634B2, “Substituted N-( indole-2-carbonyl-) amides and derivatives as glycogen phosphorylase inhibitors” (Pfizer, Inc., priority 1995, dated 2003)

melting point: 192 to 192.5 °C
Compound: CON(C)C(=O)C(O)CNC(=O)c1cc2cc(Cl)ccc2[nH]1 (racemic) [Example 30, 5-Chloro-1H-indole-2-carboxylic acid [(2RS)-hydroxy-2-(methoxy-methyl-carbamoyl)-ethyl]-amide]
